Measurements from US5232917A, “Methods, compositions, and compounds for allosteric modulation of the GABA receptor by members of the androstane and pregnane series” (priority 1991, dated 1993).

Assays:
[1] = tested on: GABA receptor-chloride ionophore complex (GR complex); experiment: Dissociation kinetics of [35S]TBPS in rat cerebral cortical membranes; type: binding; conditions: alphaxalone 300 nM, 3α-OH-DHP 20 nM
[2] = tested on: BZ receptor; experiment: [3H]flunitrazepam binding to the BZ receptor in rat hippocampal homogenates; conditions: pentobarbital 1.0 mM; 0.25 nM [3H]FLU; no GABA; FIG. 3
[3] = tested on: GABA receptor complex (36Cl uptake, cerebral cortical synaptoneurosomes); experiment: GABA-stimulated 36Cl uptake in rat cerebral cortical synaptoneurosomes; type: biochemical, rat (male Sprague-Dawley)
[4] = tested on: open-field activity; experiment: Open-field activity test; type: in vivo, mice (male N.I.H. Swiss-Webster); conditions: for total distance, open-field: 20 mg/kg, 10 min, vehicle 2004.6 ± 134.6; for effect on open-field activity: steroids 20 mg/kg, diazepam 10 mg/kg
Source text: The light/dark transition test (Crawley and Goodwin, 1980) is based on the observation that rodents naturally tend to explore novel environments, but open, brightly lit arenas are aversive to the rodents and inhibit exploratory behavior (Christmas and Maxwell, 1970; File, 1980). […] Similar to the light/dark transition test, the open-field test measures the antagonism between the tendency to explore a novel environment and the tendency to remain still in an aversive environment (brightly lit arena). […] The open-field test provides a simple, non-punished assessment of the potential anxiolytic properties of novel compounds. Finally, 3α-OH-DHP was tested for anxiolytic properties in a Vogel conflict paradigm. The ability of BZs to attenuate the suppression of behavior by punishment in conflict paradigms is well established (Gellar et al., 1962; Vogel et al., 1971).
Male N.I.H. Swiss-Webster mice (Harlan) weighing 15-20 g were used in all experiments. The mice were housed 4/cage in polyethylene cages with sawdust bedding. The colony room was environmentally controlled (22° C.) with a 12 hr. light/dark cycle (0600-1800 hrs.). The mice had free access to food and water. The experiments were run from 0700-1500 hrs. and groups were counterbalanced for time of day effects.
As a secondary measure of anxiolytic effects, naive mice were placed in the center of a large, brightly lit plexiglass box (42×42×30.5 cm) and the total distance traveled was measured during a 10 min. test period. […] The Digiscan Activity Monitor (Omnitech Electronics, Columbus, Ohio) includes 16 photobeams that surround the box. The activity monitor is linked to a computer through a Digiscan Analyzer (Omnitech Electronics) and the data is analyzed using the Integrated Lab Animal Monitoring System (Omnitech Electronics). The mice were administered drugs as described for light/dark transitions.
2-Hydroxypropyl β-cyclodextrin Diazepam and chlordiazepoxide are available from Sigma, Co. (St. Louis, Mo.). CGS-8216 was obtained from Ciba-Geigy (Summit, N.J.). All drugs were dissolved in 20% β-cyclodextrin in water and sonicated overnight. All drugs were administered intraperitoneally in a volume of 100 μL/20 g. CGS-8216 was administered subcutaneously in a volume of 100 μL/20 g.
(§1) The vehicle control data were analyzed across test days using an 1-way analysis of variance (ANOVA). […] The dose-response curves were then analyzed using an 1-way ANOVA, followed by Dunnett's t-test for individual comparisons between doses and control. The open-field and habituated locomotor data were analyzed using ANOVA followed by Dunnett's t-test. […] All data is expressed as the mean±S.E.M.

[5] = tested on: locomotor activity; experiment: Locomotor activity in habituated mice; type: in vivo, mice (male N.I.H. Swiss-Webster)
Method: For evaluation of a drug's effects on general activity, mice were first habituated to the open-field apparatus for 15 min. The following day, mice were pretreated with a test drug and placed in the center of the activity chambers. The total distance traveled was measured for 10 min.
as §1

[6] = tested on: maximal electroshock seizure; conditions: dissolved in DMSO; Belelli et al., 1989; cited from earlier work
[7] = tested on: metrazol-induced convulsions; conditions: dissolved in DMSO; Belelli et al., 1989; cited from earlier work
[8] = tested on: (+)bicuculline-induced seizures; conditions: dissolved in DMSO; Belelli et al., 1989; cited from earlier work
[9] = tested on: picrotoxin-induced convulsions; conditions: dissolved in DMSO; Belelli et al., 1989; cited from earlier work
[10] = tested on: strychnine-induced convulsions; conditions: dissolved in DMSO; Belelli et al., 1989; cited from earlier work
[11] = tested on: sedative potential (rotorod); conditions: dissolved in DMSO; Belelli et al., 1989; cited from earlier work
[12] = tested on: sedative potential (rotorod); experiment: Rotorod test; conditions: rotorod ED50 vs (+)bicuculline ED50
Method: (§2) Adult male CFI mice (20-30g) were used in these studies. […] Ten to twelve mice were used per dose of test drug. […] Sedative potential was determined by a rotorod test where the number of mice staying on a rotating (6 rpm) rod for ≥1 min. in each of three trials was determined.

[13] = Rotorod test; conditions: mouse, in vivo, ip
Method: as §2

[14] = Na pentobarbital 30 μM, 2 nM [35S]TBPS

## CC(=O)[C@H]1CC[C@H]2[C@@H]3CC[C@H]4C[C@H](O)CC[C@]4(C)[C@H]3CC[C@]12C [Example 3α-OH-DHP, 3α-hydroxy-5α-pregnan-20-one]
[1]; Na pentobarbital 30 μM
  Total percentage of specific sites, rapid (R): 35 ± 3%
  Total percentage of specific sites, slow (S): 68 ± 3%
[1]; [14]
  K-1, slowly dissociating component (S): 0.011 ± 0.002 min⁻¹
  T1/2, rapidly dissociating component (R): 6.4 ± 1 min
  T1/2, slowly dissociating component (S): 76 ± 11 min
[1]; pentobarbital 30 μM, FIGS. 2A, 2B
  biphasic dissociation mechanism of [35S]TBPS: absent
[2]
  interaction with pentobarbital in the enhancement of [3H]FLU binding: does not interact
[3]; 3α-OH-DHP 500 nM alone, GABA 25 μM, FIG. 4
  enhancement of GABA-stimulated 36Cl uptake above GABA alone: 60%
[3]; GABA (25 μM) + 3α-OH-DHP (500 nM)
  % enhancement of basal 36Cl uptake: 194 ± 8%
[3]; steroid alone, no GABA
  effect on basal 36Cl uptake: no effect
[4]
  total distance, open-field: 5344.9 ± 754.5 cm
  effect on open-field activity: significant (p<0.01) increases in activity
[5]; 3α-OH-DHP 20 mg/kg, controls 2061.2±157.7 cm, p<0.01
  total distance traveled, acclimated mice: 5694.7±608.4 cm
[5]; acclimated mice
  effect on locomotor activity: significant increase in locomotor activity
[6]
  ED50 MES (maximal electroshock): > 300 mg/kg
[7]
  ED50 MTZ (metrazol): 18.8 ± 1.1 mg/kg
[8]
  ED50 BIC (bicuculline): 4.1 ± 1.7 mg/kg
[9]
  ED50 PICRO (picrotoxin): 31.7 ± 1.1 mg/kg
[10]
  ED50 STR (strychnine): > 300 mg/kg
[11]
  ED50 RR (Rotorod): 40 to 100 mg/kg
[12]
  sedative liability at anticonvulsant doses: low

## C[C@]12CC[C@@H](O)C[C@@H]1CC[C@@H]1[C@@H]2CC[C@]2(C)[C@@H](C(=O)CO)CC[C@@H]12 [Example 5α-THDOC, 3α,21-dihydroxy-5α-pregnan-20-one]
[4]
  total distance, open-field: 7328.4 ± 769.5 cm
  effect on open-field activity: significant (p<0.01) increases in activity
[13]
  TD50: 22.9 mg/kg
